Experiment in all cases: NCI-60 cell line screen, 48 h
Test [1] deals with KM12.
In test [2] the test system is COLO 205.
The subject of test [3] is CCRF-CEM.
Test [4] has as its system HCT-116.
The test system of test [5] is OVCAR-8.
The test system of test [6] is PC-3.
Test [7] has as its system HOP-62.
The subject of test [8] is NCI/ADR-RES.
Test [9] relates to Hs-578T.
The subject of test [10] is SK-MEL-28.
Test [11] deals with UACC-257.
Test [12] concerns NCI-H460.
The subject of test [13] is LOX IMVI.
Test [14] has as its system A498.
The subject of test [15] is SN12C.
The test system of test [16] is HOP-92.
The subject of test [17] is IGROV-1.
For test [18], the system named is MCF7.
The test system of test [19] is SNB-19.

The structures appear in SMILES notation.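 Cells were grown in 96-well plates and exposed to each compound for 48 hours at five concentrations; endpoints were interpolated linearly between bracketing concentrations, or set to the highest concentration if not reached. GI50 = concentration required for 50% inhibition of growth.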 Calls of active or inactive are those of the source. No stated cut-off is given here; in the data, active = GI50 up to about 1.1 µM and inactive = higher.

Regarding `C(/Cc1ccc2c(c1)OCO2)=N\N=C1NCCCN1`, the GI50 was > 100 µM (inactive) in test [1]; 57 µM (inactive) in [2]; 48.5 µM (inactive) in test [3]; 46.2 µM (inactive) in test [4]; > 100 µM (inactive) in [5]; 36.3 µM (inactive) in test [6]. Also, the GI50 in test [7] is 28.4 µM (inactive); in test [8], 84.1 µM (inactive); in test [9], > 100 µM (inactive); in [10], > 100 µM (inactive); in test [11], > 100 µM (inactive); in test [12], 19 µM (inactive). In addition, the GI50 in test [13] was 29.4 µM (inactive); in [14] it was 19.5 µM (inactive); in [15], 54.3 µM (inactive); in [16] it was 70.1 µM (inactive); in test [17], 68.2 µM (inactive); in test [18], 26.9 µM (inactive). Moreover, the GI50 in test [19] is > 100 µM (inactive).
Consider `Clc1ccc(CSCc2ccc(Cl)cc2Cl)c(Cl)c1`, for which the GI50 was 40.2 µM (inactive) in test [1]; 65.8 µM (inactive) in [2]; 22.2 µM (inactive) in [3]; 41.4 µM (inactive) in [4]; > 100 µM (inactive) in test [5]; 44.1 µM (inactive) in [6]. For the same molecule, the GI50 in [7] is > 100 µM (inactive); in test [8] it was > 100 µM (inactive); in [9] it was 79.4 µM (inactive); in test [10], 79.6 µM (inactive); in test [11], 25.6 µM (inactive); in test [12], 95.9 µM (inactive). Besides, the GI50 in test [13] was 36.1 µM (inactive); in test [14], 40.2 µM (inactive); in [15], > 100 µM (inactive); in test [16], 54.2 µM (inactive); in [17], 41.8 µM (inactive); in [18] it was 27.7 µM (inactive). Further, the GI50 in test [19] was > 100 µM (inactive).
Turning to `COC(=O)c1cc2c3c(cc(NCCN)c2[nH]1)N(C(=O)c1cc2cc(OC)c(OC)c(OC)c2[nH]1)CC3CCl` (stereo not given), the GI50 in [1] was 0.205 µM (active); in test [2], 0.0559 µM (active); in test [3], 0.0174 µM (active); in test [4], 0.0198 µM (active); in test [5] it was 0.109 µM (active); in test [6] it was 0.0269 µM (active). The GI50 in [7] is 0.17 µM (active); in test [8], 0.358 µM (active); in test [9] it was 0.049 µM (active); in test [10] it was 0.109 µM (active); in test [11], 0.214 µM (active); in test [12], 0.0502 µM (active). In addition, the GI50 was 0.0186 µM (active) in test [13]; 0.131 µM (active) in test [14]; 0.0982 µM (active) in [15]; 0.0703 µM (active) in test [16]; 0.012 µM (active) in test [17]; 0.014 µM (active) in [18]. For the same molecule, the GI50 in test [19] is 0.0183 µM (active).
`NC(=O)NC(=O)c1cccc(NC(=O)CBr)c1`: the GI50 in test [1] was 0.0216 µM (active); in [2], < 0.01 µM (active); in test [3] it was < 0.01 µM (active); in test [4], < 0.01 µM (active); in test [5], < 0.0172 µM (active); in [6], < 0.0182 µM (active). Also, the GI50 is 0.0577 µM (active) in test [7]; < 0.0171 µM (active) in test [8]; < 0.0206 µM (active) in test [9]; 1.44 µM (inactive) in test [10]; < 0.0311 µM (active) in test [11]; < 0.0509 µM (active) in test [12]. Also, the GI50 in [13] is < 0.01 µM (active); in test [14] it was 0.102 µM (active); in [15] it was < 0.0206 µM (active); in test [16] it was < 0.0216 µM (active); in test [17] it was 0.0266 µM (active); in [18] it was < 0.01 µM (active). In test [19], the GI50 was 0.515 µM (active).
As to `CCOC(=O)c1nc2ccc(C(F)(F)F)cc2nc1Oc1ccc(OC)cc1`, the GI50 in test [1], in test [2], in test [3], in [4], in [5] and in test [6] was > 100 µM (inactive) throughout. Further, the GI50 in test [7], in [8], in test [9], in [10], in test [11] and in test [12] was > 100 µM (inactive) each time. Besides, the GI50 in test [13] is > 100 µM (inactive); in test [14], > 100 µM (inactive); in test [15], > 100 µM (inactive); in [16] it was 82.2 µM (inactive); in [17], > 100 µM (inactive); in [18] it was > 100 µM (inactive). Further, in test [19], the GI50 was > 100 µM (inactive).
Regarding `CCC(=O)C(CCN1CCC2(CCCc3ccccc32)CC1)(c1ccccc1)c1ccccc1`, the GI50 in test [1] was 1.79 µM (inactive); in test [2] it was 1.34 µM (inactive); in [3] it was 1.78 µM (inactive); in test [4] it was 1.42 µM (inactive); in [5], 3.66 µM (inactive); in test [6] it was 2.45 µM (inactive). Moreover, the GI50 in test [7] was 3.28 µM (inactive); in test [8], 3.19 µM (inactive); in test [9] it was 2.33 µM (inactive); in [10], 4.65 µM (inactive); in [11] it was 2.05 µM (inactive); in test [12], 2.52 µM (inactive). Further, the GI50 is 0.851 µM (active) in test [13]; 1.98 µM (inactive) in [14]; 2.29 µM (inactive) in [15]; 1.47 µM (inactive) in [16]; 2.77 µM (inactive) in test [17]; 2.86 µM (inactive) in [18]. Besides, in test [19], the GI50 was 4.75 µM (inactive).
Take `CC(C)(C)c1ccc(-c2nc3ccc([N+](=O)[O-])cc3c(=O)o2)cc1`: the GI50 in [1] was 20 µM (inactive); in test [2], 24.4 µM (inactive); in [3], 20.1 µM (inactive); in [4], 23.4 µM (inactive); in [5], 20.9 µM (inactive); in test [6], 21.2 µM (inactive). The GI50 in [7] was 22.2 µM (inactive); in test [8] it was 25.4 µM (inactive); in test [9], 25.2 µM (inactive); in [10], 34.4 µM (inactive); in test [11] it was 29.6 µM (inactive); in test [12], 36.4 µM (inactive). Moreover, the GI50 in test [13] was 15.3 µM (inactive); in [14] it was 29.9 µM (inactive); in test [15] it was 40.1 µM (inactive); in [16] it was 15.6 µM (inactive); in test [17] it was 44.2 µM (inactive); in [18], 34.1 µM (inactive). Also, in test [19], the GI50 is 21.5 µM (inactive).
As to `C=C(C)C(CC=C(C)C)Cc1c(O)cc(OC)c2c1OC(c1ccc(O)cc1O)C(O)C2=O` (stereo not given), the GI50 in test [1] was 12 µM (inactive); in test [2], 16.3 µM (inactive); in test [3], 50.8 µM (inactive); in test [4], 17.3 µM (inactive); in test [5], 17 µM (inactive); in [6], 13.5 µM (inactive). In addition, the GI50 in [7] is 17.3 µM (inactive); in [8], 22.9 µM (inactive); in test [9], 17.2 µM (inactive); in [10], 21.1 µM (inactive); in [11] it was 17.7 µM (inactive); in test [12] it was 15.5 µM (inactive). Further, the GI50 was 20 µM (inactive) in test [13]; 16.5 µM (inactive) in test [14]; 20.5 µM (inactive) in test [15]; 14.6 µM (inactive) in test [16]; 14.6 µM (inactive) in test [17]; 13.2 µM (inactive) in test [18]. The GI50 in test [19] is 15.5 µM (inactive).
As to `O=S(=O)(/N=C(\NO)Nc1ccc(Cl)cc1)C1CC=C(c2ccon2)S1` (stereo not given), the GI50 in test [1] was 46.5 µM (inactive); in test [2] it was 15.7 µM (inactive); in test [3] it was 12.2 µM (inactive); in test [4], 15.6 µM (inactive); in test [5] it was 8.77 µM (inactive); in test [6], 14.8 µM (inactive). Moreover, the GI50 in [7] is 40.5 µM (inactive); in test [8] it was 22.1 µM (inactive); in test [9], 14.7 µM (inactive); in [10], 23.5 µM (inactive); in test [11], 12.5 µM (inactive); in test [12] it was 16 µM (inactive). In addition, the GI50 in test [13] is 21 µM (inactive); in test [14] it was 7.24 µM (inactive); in [15] it was 18.2 µM (inactive); in [16] it was 10.3 µM (inactive); in test [17], 11.6 µM (inactive); in test [18], 16.1 µM (inactive). Besides, the GI50 in [19] was 30.1 µM (inactive).
As to `NC(=O)C1=CC2C3C=CC2(O)C(=O)OC3O1` (stereo not given), the GI50 is 2.94 µM (inactive) in test [1]; 3.71 µM (inactive) in [2]; 1.8 µM (inactive) in test [3]; 2.62 µM (inactive) in test [4]; 2.46 µM (inactive) in test [5]; 3.57 µM (inactive) in test [6]. For the same molecule, the GI50 in test [7] was 9.06 µM (inactive); in test [8] it was 2.46 µM (inactive); in test [9], 1.81 µM (inactive); in test [10], 2.34 µM (inactive); in [11], 2.58 µM (inactive); in test [12], 17.9 µM (inactive). Further, the GI50 in test [13] is 2.14 µM (inactive); in [14], 32.7 µM (inactive); in test [15], 4.28 µM (inactive); in test [16], 2.43 µM (inactive); in test [17] it was 2.92 µM (inactive); in test [18], 3.28 µM (inactive). Also, in test [19], the GI50 was 13.1 µM (inactive).

Values taken from ChEMBL document CHEMBL1201862, “PubChem BioAssay data set” (2004).
